Experimental data from patent publication US5948784A, “Quinazoline derivatives” (Kyowa Hakko Kogyo Co., Ltd., priority 1994, dated 1999).

Columns and labels:
[1] = test system: [^3 H]-adenosine uptake in erythrocytes; test: Inhibitory Effect on [^3 H]-Adenosine Uptake (washed erythrocytes); format: cell-based, human (healthy male adult); settings: Homo sapiens; erythrocyte suspension, 1 hour preincubation at room temperature, 10 seconds uptake; read-out: [^3 H]-Adenosine Uptake Inhibition IC50
Method: A blood sample was obtained from a healthy adult under 40 years of age by brachial venipuncture using a syringe containing sodium citrate and subjected to centrifugation to obtain washed erythrocytes. […] Ten seconds later, 200 μl of a dilazep solution (1 mg/ml) was added to stop the reaction. […] The supernatant was removed and the erythrocyte fraction was separated. […] The concentration of the test compound which inhibits the [^3 H]-adenosineuptake by 50% (IC50) was calculated.

[2] = target: T1, [^3 H]-Nitrobenzylthioinosine (NBI) binding, cerebral cortex homogenate (Cavia porcellus, UniProt H0V4R7); test: Inhibitory Effect on [^3 H]-Nitrobenzylthioinosine (NBI) Binding; parameters: species or system guinea pig (male, Hartley strain); settings: guinea pig cerebral cortex, 1.5 nM [^3 H]-NBI, 25° C., 30 minutes, Cheng-Prusoff
T1 construct: The cerebral cortex of a male guinea pig of Hartley strain was homogenized; from tissue; host or cells: cerebral cortex of male Hartley guinea pig (washed membrane precipitate)
T1 sequence (H0V4R7 1-461): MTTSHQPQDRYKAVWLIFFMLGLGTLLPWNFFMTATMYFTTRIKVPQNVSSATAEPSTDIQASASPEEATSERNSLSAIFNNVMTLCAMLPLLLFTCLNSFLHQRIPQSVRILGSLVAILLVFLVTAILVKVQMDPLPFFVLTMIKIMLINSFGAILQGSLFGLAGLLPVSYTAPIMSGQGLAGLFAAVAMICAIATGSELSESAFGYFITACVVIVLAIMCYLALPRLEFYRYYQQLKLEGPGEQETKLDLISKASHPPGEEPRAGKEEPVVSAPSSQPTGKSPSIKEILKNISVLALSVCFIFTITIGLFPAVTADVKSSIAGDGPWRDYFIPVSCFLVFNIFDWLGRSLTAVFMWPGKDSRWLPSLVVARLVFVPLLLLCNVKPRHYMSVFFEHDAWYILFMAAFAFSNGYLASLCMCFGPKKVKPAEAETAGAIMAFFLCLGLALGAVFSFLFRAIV
Method: The cerebral cortex of a male guinea pig of Hartley strain was homogenized with an ice-cooled 50 mM tris-HCl buffer (pH 7.4) in an amount of 25 times (w/v) that of the tissue. The homogenate was centrifuged (30,000×g, 4° C., 20 mins.), and the supernatant was discarded. To the precipitate was added the same amount of the buffer, followed by homogenization and then centrifugation in the same manner as above. The obtained precipitate was suspended in 20 times as much buffer as the precipitate to prepare a suspension for testing. To a DMSO solution of a test compound were added 1.5 nM of [^3 H]-NBI and 5 mg (wet basis) of the tissue homogenate, and the mixture was allowed to stand at 25° C. for 30 minutes. To the mixture was added 4 ml of an ice-cooled buffer, followed by rapid filtration with suction through a glass filter (GF/C, produced by Whatman Ltd.) or a Ready filter (produced by Beckman Co.) to stop the reaction. The filter was transferred to a scintillation vial, and after drying, Scintisol EX-H was added thereto. The radioactivity was measured with a liquid scintillation counter. The binding inhibitory activity was expressed in terms of an inhibition constant (Ki value) as calculated according to Cheng-Prusoff's formula.

[3] = test system: Masugi Nephritis in ddY-strain male mice; test: Effect on Increase of Albumin Excretion in Masugi Nephritis; format: in vivo, mouse
Method: Mouse nephrotoxin (hereinafter referred to as NT) was prepared according to the method of Ito, et al. [The Japanese Journal of Nephrology, 23, 25-36 (1981)]. That is, glomerular basement membrane (hereinafter referred to as GBM) was isolated from mouse kidney and digested with trypsin (Sigma). The digested GBM was subjected to ultracentrifugation under cooling, and the supernatant was dialyzed against distilled water, followed by lyophilization. The lyophile product was intracutaneously injected as an antigen into four foot pads of a rabbit together with Freund's complete adjuvant (Iatron; hereinafter referred to as FCA) once a week for 4 weeks for immunization. The whole blood was drawn from the immunized rabbit, and serum was separated and inactivated at 56° C. for 30 minutes to prepare NT.
In this test, ddY-strain male mice weighing 29-36 g were used. For previous immunization, 0.25 ml of an FCA emulsion containing 0.25 mg of rabbit immunoglobulin-globulin (IgG, Sigma) was intraperitoneally injected into mice. Nephritis was induced by intravenous injection of 0.075 ml of NT through the tail vein 4 and 11 days after the previous immunization. […] The supernatant was analyzed for albumin using an autoanalyzer (Olympus). […]
The results are shown in Table 7 as the means±standard error of each group consisting of 11 mice. Statistical significance was evaluated by Student's t-test.

[4] = test system: dd-strain male mice; test: Acute Toxicity Test; format: in vivo; settings: mortality seven days after administration
Method: A test compound was orally or intraperitoneally administered to groups of dd-strain male mice weighing 20±1 g, each group consisting of three mice. […] The MLD was >1000 mg/kg for oral administration of Compound 10 and was >100 mg/kg for intraperitoneal administration of Compound 10.

[5] = test system: Diabetic Nephropathy (STZ) in ddY-strain male mice; test: Effect on Increase of Albumin Excretion in Diabetic Nephropathy; format: in vivo, mouse; settings: for Urinary Albumin Content: mean, standard error, control 333 ± 30, normal 80 ± 3
Method: In this test, ddY-strain male mice weighing 25-28 g were used. Diabetes was induced according to the method of Tsuchida, et al. [Jin To Toseki (Kidney and Dialysis), 31, 363-366 (1991)]. That is, streptozotocin (5 mg/ml, Sigma; hereinafter referred to as STZ) dissolved in 0.05 M citrate buffer was intravenously injected into mice through the tail vein at a dose of 10 ml/kg. On the fourth day after the STZ administration, 30 μl of blood was collected from the tail vein of the mice and the blood glucose was determined using Glutestsensor (Sanwa Kagaku). The animals were divided into three groups based on the blood glucose level. Twelve weeks after the STZ administration, each mouse was put into a metabolic cage and received oral administration of 0.5 ml/10 g of distilled water twice at an interval of 12 hours. Urine was collected for 24 hours, and after measurement of the volume, the urine was centrifuged under cooling (3000 rpm, 4° C. ) for 5 minutes. The supernatant was analyzed for albumin using an autoanalyzer (Olympus). A test compound was orally administered once a day for 11 weeks, starting on the fifth day after the STZ administration. The normal group and the control group received oral administration of a solvent (5% methyl cellulose solution). The results are shown in Table 8 as the means standard error of each group. Statistical significance was evaluated by Aspin-Welch's test for the difference between the control group and the normal group and by Steel's test for the difference between the control group and the test compound-administered group.

Row | IC50 [1] [nM] | Ki [2] [nM] | Structure (SMILES) | other results
1 | 29 | 1.5 | COc1cc2nc(N(CCO)CCO)nc(N3CCC(n4c(=O)c5cc(C)ccc5n(C)c4=O)CC3)c2cc1OC [Compound 6, 3-{1-[2-Bis(2-hydroxyethyl)amino-6,7-dimethoxy-4-quinazolinyl]-4-piperidinyl}-1,2,3,4-tetrahydro-1,6-dimethyl-2,4-dioxoquinazoline] | –
2 | 64 | – | COc1cc2nc(N3CCN(C)CC3)nc(N3CCC(n4c(=O)c5cc(C)ccc5n(C)c4=O)CC3)c2cc1OC [Compound 2, 3-{1-[6,7-Dimethoxy-2-(4-methyl-1-piperazinyl)-4-quinazolinyl]-4-piperidinyl}-1,2,3,4-tetrahydro-1,6-dimethyl-2,4-dioxoquinazoline] | –
3 | 35 | 2 | COc1cc2nc(N3CCOCC3)nc(N3CCC(n4c(=O)c5cc(C)ccc5n(C)c4=O)CC3)c2cc1OC [Compound 1, 3-[1-(6,7-Dimethoxy-2-morpholino-4-quinazolinyl)-4-piperidinyl]-1,2,3,4-tetrahydro-1,6-dimethyl-2,4-dioxoquinazoline] | –
4 | 50 | 1.4 | CCCNc1nc(N2CCC(n3c(=O)c4cc(C)ccc4n(C)c3=O)CC2)c2cc(OC)c(OC)cc2n1 [Compound 8, 3-[1-(6,7-Dimethoxy-2-propylamino-4-quinazolinyl)-4-piperidinyl]-1,2,3,4-tetrahydro-1,6-dimethyl-2,4-dioxoquinazoline] | –
5 | – | 2.6 | COc1cc2nc(N(C)C)nc(N3CCC(n4c(=O)c5cc(C)ccc5n(C)c4=O)CC3)c2cc1OC [Compound 5, 3-[1-(2-Dimethylamino-6,7-dimethoxy-4-quinazolinyl)-4-piperidinyl]-1,2,3,4-tetrahydro-1,6-dimethyl-2,4-dioxoquinazoline] | –
6 | – | 7.6 | CCOC(=O)C1CCN(c2nc(N3CCC(n4c(=O)c5cc(C)ccc5n(C)c4=O)CC3)c3cc(OC)c(OC)cc3n2)CC1 [Compound 3, 3-{1-[2-(4-Ethoxycarbonylpiperidino)-6,7-dimethoxy-4-quinazolinyl]-4-piperidinyl}-1,2,3,4-tetrahydro-1,6-dimethyl-2,4-dioxoquinazoline] | –
7 | 62 | 3.8 | COc1cc2nc(N(C)CCN(C)C)nc(N3CCC(n4c(=O)c5cc(C)ccc5n(C)c4=O)CC3)c2cc1OC [Compound 7, 3-{1-{2-[N-(2-Dimethylaminoethyl)-N-methylamino]-6,7-dimethoxy-4-quinazolinyl}-4-piperidinyl}-1,2,3,4-tetrahydro-1,6-dimethyl-2,4-dioxoquinazoline] | –
8 | 72 | – | COc1cc2nc(N3CCC(C(=O)O)CC3)nc(N3CCC(n4c(=O)c5cc(C)ccc5n(C)c4=O)CC3)c2cc1OC [Compound 4, 3-{1-[2-(4-Carboxypiperidino)-6,7-dimethoxy-4-quinazolinyl]-4-piperidinyl}-1,2,3,4-tetrahydro-1,6-dimethyl-2,4-dioxoquinazoline] | –

Row | Structure (SMILES) | IC50 [1] [nM] | Ki [2] [nM] | other results
9 | CCOc1cc2nc(N3CCOCC3)nc(N3CCC(n4c(=O)c5cc(C)ccc5n(C)c4=O)CC3)c2cc1OCC.Cl [Compound 10, 3-[1-(6,7-Diethoxy-2-morpholino-4-quinazolinyl)-4-piperidinyl]-1,2,3,4-tetrahydro-1,6-dimethyl-2,4-dioxoquinazoline hydrochloride] | 97 | 2 | Urinary Albumin Content ([3]; 1 mg/kg oral once a day, mean ± standard error, 11 mice, control 134 ± 9, normal 85 ± 5, marked **): 96 ± 7 mg/kg/24 hr; effect on increase of urinary albumin in nephritis (in words) ([3]; Masugi nephritis, mice): inhibits the increase of urinary albumin in nephritis; minimum lethal dose (MLD), intraperitoneal ([4]; intraperitoneal): > 100 mg/kg; minimum lethal dose (MLD), oral ([4]; oral): > 1000 mg/kg; Urinary Albumin Content ([5]; 1 mg/kg oral once a day for 11 weeks, 10 animals, * less than 5% vs control): 244 ± 16 mg/kg/24 hr; Urinary Albumin Content ([5]; 10 mg/kg oral once a day for 11 weeks, 9 animals, ** less than 1% vs control): 200 ± 13 mg/kg/24 hr; effect on increase of urinary albumin in diabetic nephropathy (in words) ([5]; STZ diabetic nephropathy, mice): inhibits the increase of urinary albumin in diabetic nephropathy
